Values after ≈ are worked out from the molar mass of the structure shown.
Tests used:
[1] = test system: Mycobacterium tuberculosis; assay: Antimycobacterial activity against Mycobacterium tuberculosis ATCC 27294 in radiometric culture by NCCLS method; format: functional
[2] = test system: Mycobacterium tuberculosis; assay: Antimycobacterial activity against Mycobacterium tuberculosis ATCC 27294 in radiometric culture at 50 ug/ml by NCCLS method; format: functional

SMILES | MIC [1] | inhibition at 50 µg/mL [2]
COc1cc(O)c2c(O)c3c(=O)cc(C)oc3cc2c1C [QUINQUANGULIN] | 12 µg/mL (≈ 41.9 µM) | 99%
COc1cc(O)c2c(O)c3c(=O)cc(C)oc3cc2c1 [RUBROFUSARIN] | 12 µg/mL (≈ 44.1 µM) | 99%

From ChEMBL document CHEMBL1146480, “Antimycobacterial Naphthopyrones from Senna obliqua” (2004)
